“Also recorded” adds a separate entry of the source. Non-standard residues stand in square brackets, D forms with d. Residues, ends and D or L forms follow the SMILES beside them. *: point of attachment. RhodamineB = CCN(CC)c1ccc2c(-c3ccccc3C(=O)*)c3ccc(=[N+](CC)CC)cc-3oc2c1; Gly(Nα-4-Cl-benzyl) = O=C(O)CNCc1ccc(Cl)cc1; Nphe = O=C(O)CNCc1ccccc1; NBuGly = CCCCNCC(=O)O; Nlys = NCCCCNCC(=O)O
Tests used:
[1] = in vitro; assay type: cell-based; settings: human
Method: The cytotoxicity of the macrocyclic hybrids 15–24, as well as their conjugates 15-Rhod to 24-Rhod, was examined using a standard MTT assay in human epithelial cervix carcinoma (HeLa) cells. […] ([Mosmann, 1983]; [Tolosa et al., 2015]) After treatment of HeLa cells with different concentrations of the respective macrocycles 15–24 (0.50─50 µM) for 72 h, no significant cytotoxic effects were observed. […] As shown by many research groups that Rhodamine B by itself is not efficiently entering the cells showing therefore an LD50 > 50 μM, we assume that this the toxicity of the Rhodamine moiety might be higher when increasingly localizing in the mitochondria to a higher amount.
In a 96-well plate (Corning® Costar® 3596 96-Well Cell Culture Cluster), 1.0 × 10^4 HeLa-cells per well of a 96 well plate were cultivated for 16 h. Stock solutions of the single compounds in dimethylsulfoxide were diluted to 0.50 µm, 5.00 µm, and 50.0 µm with cell culture medium (DMEM + 10% FBS + 1% P/S) to ensure a final concentration of DMSO below 0.5%. 100 µL of the prepared DMEM diluted compounds were added to each well and the cells were incubated for 72 h. All experiments were performed in triplicates. Cells that were solely treated with the culture medium containing 0.5% of DMSO served as a negative control. After incubation, the positive control (cells in DMSO plus 0.5% DMSO) was treated with 1% Triton-X. To determine the viability of the cells 20 µL of a freshly prepared solution of 3-(4,5-dimethylthiazol-2-yl)-2,5-diphenyltetrazolium bromide (MTT, 2.73 mg/mL, Sigma-Aldrich®) in culture medium were added to each well and incubated at 37 °C for 4 h. The reaction was stopped using 100 µL of Solubilization Solution / Stop Mix (CellTiter 96® Non-Radioactive Cell Proliferation Assay, Promega). After 24 h, the absorption (A) of every well at 595 nm was monitored using a 96-well plate reader (Ultra Microplate Reader ELx808, Biotech Instruments Inc.).

[2] = test system: HeLa cells; assay: Localization assay: cellular uptake and organellar localization by confocal microscopy; assay type: cell-based, human; settings: 5 µM, 5 h, 37 °C; for Cellular uptake efficiency: confocal microscopy of Rhodamine B fluorescence (Exc 532 nm, Em 570–620 nm); for Organellar localization (mitochondria): counterstaining with MitoTracker Green, confocal microscopy
Method: As 15-Rhod to 24-Rhod were not toxic at 5 µM the following transport experiments were carried out using this concentration. To study their cellular uptake and organellar localization, HeLa cells were treated with 5 µM of the cyclic conjugates 15-Rhod to 24-Rhod for 5 h and eventually imaged using confocal microscopy (for experimental details, see supplemental Material).
FIGURE 4 Localization of the macrocyclic conjugates 15-Rhod to 24-Rhod in HeLa cells. After incubation with a 5.0 µM solution of the respective transporters for 5 h, the cellular uptake was monitored via fluorescent confocal microscopy (Rhodamine B labeled hybrids: λ Exc = 532 nm, λ Em = 570–620 nm; MitoTracker® Green: λ Exc = 488 nm, λ Em = 490–540 nm; Hoechst 33,342: λ Exc = 405 nm, λ Em = 430–490 nm). Counterstaining with MitoTracker® Green visualized mitochondria (green). Staining with 2 μg/ml Hoechst 33,342 indicated nuclei (blue). Scale bar: 10 µm.
In an 8-well chamber slide (µ-Slide 8-Well ibidiTreat, ibidi®), 1.0 × 10^4 HeLa cells per well were cultivated for 16 h. The cyclic hybrids were diluted with DMEM to yield a 5 µM concentration. The cells were treated with the hybrids for 5 h at 37 °C. To monitor the intracellular localization, the cells were counterstained with MitoTracker® (Invitrogen) and 2 µg/mL Hoechst 33342. After washing with DPBS (3 ×), the luminescence was monitored via life-cell imaging using a Leica TCS-SPE confocal microscope (DM2500 inverse microscope, 8 Bit resolution, 1024 × 1024 pixels), equipped with a 1 Airy pinhole aperture (111.5 µm), ACS APO 63.0x/1.30 OIL UV and 40x/1.14 OIL UV objectives and the images were processed by the Leica Application Suite (LAS-AF) Version 2.1.2 build 4530 software. Images were taken with a scanning frequency of 400 Hz. Background noise was averaged by an eight-fold repetition of the scan process. The cyclic hybrids were excited at 532 nm, MitoTracker® Green at 488 nm, and Hoechst 33342 at 405 nm. The exposure was set to minimize oversaturated pixels in the final images. Fluorescence emission was measured at 570–620 nm for the detection of rhodamine B labeled hybrids, at 490–540 nm for the detection of mitochondria, and 430–490 nm for the detection of nuclei.

IC50 at 72 h [1] | SMILES | Cellular uptake efficiency [2] | Organellar localization (mitochondria) [2]
> 50 µM | CCN(CC)c1ccc2c(-c3ccccc3C(=O)NCCCCN3CC(=O)N[C@@H](Cc4ccccc4)C(=O)N(Cc4ccccc4)CC(=O)N(Cc4ccccc4)CC3=O)c3ccc(=[N+](CC)CC)cc-3oc2c1 [15-Rhod, cyclo-(l-Phe-N1ph-N1ph-N4am(Rhod))] (cyclo(F[Nphe][Nphe][Nlys](RhodamineB))) | – | –
30 µM | CCN(CC)c1ccc2c(-c3ccccc3C(=O)NCCCCN3CC(=O)N(Cc4ccccc4)CC(=O)N[C@@H](Cc4ccccc4)C(=O)N(Cc4ccc(Cl)cc4)CC3=O)c3ccc(=[N+](CC)CC)cc-3oc2c1 [16-Rhod, cyclo-(l-Phe-N1ph^pCl-N4am(Rhod)-N1ph)] (cyclo(F[Gly(Nα-4-Cl-benzyl)][Nlys](RhodamineB)[Nphe])) | – | –
> 50 µM | CCCCN1CC(=O)N(Cc2ccccc2)CC(=O)N(CCCCNC(=O)c2ccccc2-c2c3ccc(=[N+](CC)CC)cc-3oc3cc(N(CC)CC)ccc23)CC(=O)N[C@@H](Cc2ccccc2)C1=O [17-Rhod, cyclo-(l-Phe-N3m-N1ph-N4am(Rhod))] (cyclo(F[NBuGly][Nphe][Nlys](RhodamineB))) | – | –
33 µM | CCN(CC)c1ccc2c(-c3ccccc3C(=O)NCCCCN3CC(=O)N[C@@H](Cc4ccc(O)cc4)C(=O)N[C@@H](Cc4ccccc4)C(=O)N(Cc4ccccc4)CC3=O)c3ccc(=[N+](CC)CC)cc-3oc2c1 [18-Rhod, cyclo-(l-Phe-N4am(Rhod)-N1ph-l-Tyr)] (cyclo(F[Nphe][Nlys](RhodamineB)Y)) | not internalized | –
34 µM | CCN(CC)c1ccc2c(-c3ccccc3C(=O)NCCCC[C@@H]3NC(=O)CN(Cc4ccccc4)C(=O)CN(Cc4ccccc4)C(=O)[C@H](Cc4c[nH]c5ccccc45)NC3=O)c3ccc(=[N+](CC)CC)cc-3oc2c1 [19-Rhod, cyclo-(l-Trp-N1ph-N1ph-l-Lys(Rhod))] (cyclo(K(RhodamineB)W[Nphe][Nphe])) | – | –
> 50 µM | CCN(CC)c1ccc2c(-c3ccccc3C(=O)NCCCC[C@@H]3NC(=O)CN(Cc4ccc(Cl)cc4)C(=O)CN(Cc4ccc(Cl)cc4)C(=O)[C@H](Cc4c[nH]c5ccccc45)NC3=O)c3ccc(=[N+](CC)CC)cc-3oc2c1 [20-Rhod, cyclo-(l-Trp-N1ph^pCl-N1ph^pCl-l-Lys(Rhod))] (cyclo([Gly(Nα-4-Cl-benzyl)][Gly(Nα-4-Cl-benzyl)]K(RhodamineB)W)) | – | –
36 µM | CCCCN1CC(=O)N[C@@H](CCCCNC(=O)c2ccccc2-c2c3ccc(=[N+](CC)CC)cc-3oc3cc(N(CC)CC)ccc23)C(=O)N[C@@H](Cc2ccc(O)cc2)C(=O)N(CCCC)CC1=O [21-Rhod, cyclo-(l-Tyr-N3m-N3m-l-Lys(Rhod))] (cyclo(K(RhodamineB)Y[NBuGly][NBuGly])) | – | –
6 µM | CCN(CC)c1ccc2c(-c3ccccc3C(=O)NCCCCN3CC(=O)N(Cc4ccc(Cl)cc4)CC(=O)N(Cc4ccc(Cl)cc4)CC(=O)N(Cc4ccc(Cl)cc4)CC(=O)N[C@@H](Cc4ccccc4)C(=O)N[C@@H](Cc4ccccc4)C3=O)c3ccc(=[N+](CC)CC)cc-3oc2c1 [23-Rhod, cyclo-(l-Phe-N1ph^pCl-N1ph^pCl-N1ph^pCl-N4am(Rhod)-l-Phe)] (cyclo(F[Nlys](RhodamineB)[Gly(Nα-4-Cl-benzyl)][Gly(Nα-4-Cl-benzyl)][Gly(Nα-4-Cl-benzyl)]F)) | significantly less efficient | Mitochondrial accumulation
26 µM | CCCCN1CC(=O)N[C@@H](Cc2ccccc2)C(=O)N[C@@H](Cc2ccccc2)C(=O)N(CCCCNC(=O)c2ccccc2-c2c3ccc(=[N+](CC)CC)cc-3oc3cc(N(CC)CC)ccc23)CC(=O)N(Cc2ccccc2)CC(=O)N(CCCC)CC1=O [24-Rhod, cyclo-(l-Phe-N3m-N3m-N1ph-N4am(Rhod)-l-Phe)] (cyclo(F[Nlys](RhodamineB)[Nphe][NBuGly][NBuGly]F)) | efficiently taken up; also recorded: high cellular uptake efficiency | mitochondrial specificity
> 50 µM | NCCCCN1CC(=O)N[C@@H](Cc2ccccc2)C(=O)N(Cc2ccccc2)CC(=O)N(Cc2ccccc2)CC1=O [compound 15, cyclo-(l-Phe-N1ph-N1ph-N4am)] (cyclo(F[Nphe][Nphe][Nlys])) | – | –
> 50 µM | NCCCCN1CC(=O)N(Cc2ccccc2)CC(=O)N[C@@H](Cc2ccccc2)C(=O)N(Cc2ccc(Cl)cc2)CC1=O [compound 16, cyclo-(l-Phe-N1ph^pCl-N4am-N1ph)] (cyclo(F[Gly(Nα-4-Cl-benzyl)][Nlys][Nphe])) | – | –
> 50 µM | CCCCN1CC(=O)N(Cc2ccccc2)CC(=O)N(CCCCN)CC(=O)N[C@@H](Cc2ccccc2)C1=O [compound 17, cyclo-(l-Phe-N3m-N1ph-N4am)] (cyclo(F[NBuGly][Nphe][Nlys])) | – | –
> 50 µM | NCCCCN1CC(=O)N(Cc2ccccc2)CC(=O)N[C@@H](Cc2ccc(O)cc2)C(=O)N[C@@H](Cc2ccccc2)C1=O [compound 18, cyclo-(l-Phe-N4am-N1ph-l-Tyr)] (cyclo(F[Nlys][Nphe]Y)) | – | –
> 50 µM | NCCCC[C@@H]1NC(=O)CN(Cc2ccccc2)C(=O)CN(Cc2ccccc2)C(=O)[C@H](Cc2c[nH]c3ccccc23)NC1=O [compound 19, cyclo-(l-Trp-N1ph-N1ph-l-Lys)] (cyclo(KW[Nphe][Nphe])) | – | –
> 50 µM | NCCCC[C@@H]1NC(=O)CN(Cc2ccc(Cl)cc2)C(=O)CN(Cc2ccc(Cl)cc2)C(=O)[C@H](Cc2c[nH]c3ccccc23)NC1=O [compound 20, cyclo-(l-Trp-N1ph^pCl-N1ph^pCl-l-Lys)] (cyclo([Gly(Nα-4-Cl-benzyl)][Gly(Nα-4-Cl-benzyl)]KW)) | – | –
> 50 µM | CCCCN1CC(=O)N[C@@H](CCCCN)C(=O)N[C@@H](Cc2ccc(O)cc2)C(=O)N(CCCC)CC1=O [compound 21, cyclo-(l-Tyr-N3m-N3m-l-Lys)] (cyclo(KY[NBuGly][NBuGly])) | – | –
> 50 µM | NCCCCN1CC(=O)N[C@@H](Cc2ccccc2)C(=O)N[C@@H](Cc2ccccc2)C(=O)N(Cc2ccccc2)CC(=O)N(Cc2ccccc2)CC(=O)N(Cc2ccccc2)CC1=O [compound 22, cyclo-(l-Phe-N1ph-N1ph-N1ph-N4am-l-Phe)] (cyclo(FF[Nphe][Nphe][Nphe][Nlys])) | – | –
20 µM | NCCCCN1CC(=O)N[C@@H](Cc2ccccc2)C(=O)N[C@@H](Cc2ccccc2)C(=O)N(Cc2ccc(Cl)cc2)CC(=O)N(Cc2ccc(Cl)cc2)CC(=O)N(Cc2ccc(Cl)cc2)CC1=O [compound 23, cyclo-(l-Phe-N1ph^pCl-N1ph^pCl-N1ph^pCl-N4am-l-Phe)] (cyclo(FF[Gly(Nα-4-Cl-benzyl)][Gly(Nα-4-Cl-benzyl)][Gly(Nα-4-Cl-benzyl)][Nlys])) | – | –
> 50 µM | CCCCN1CC(=O)N(Cc2ccccc2)CC(=O)N(CCCCN)CC(=O)N[C@@H](Cc2ccccc2)C(=O)N[C@@H](Cc2ccccc2)C(=O)N(CCCC)CC1=O [compound 24, cyclo-(l-Phe-N3m-N3m-N1ph-N4am-l-Phe)] (cyclo(FF[NBuGly][NBuGly][Nphe][Nlys])) | – | –
